Data published in patent US20170275261A1, “1,3,4-THIADIAZOLES HAVING A HERBICIDAL ACTIVITY, THEIR AGRONOMICAL COMPOSITIONS AND RELATIVE USE” (ISAGRO S.P.A., priority 2014, published 2017).

Key:
Assay type in all cases: in vivo
Conditions in all cases: dose 250 g/ha, fifteen days after treatment, damage vs control
Alopecurus myosuroides [1] = assay: Herbicidal activity in pre-emergence
Method: (§1) The herbicidal activity in pre-emergence of the compounds of the invention was evaluated according to the following operating procedures.
(§2) The plant species of interest (weeds or crops) were seeded in vases having an upper diameter of 10 cm, a height of 10 cm and containing sandy earth. 10 vases were used for each plant species.
(§3) Water was added to each vase in a suitable quantity for the germination of the seeds. The vases were then divided into two groups, each containing 5 vases for each weed or crop.
(§4) One day after seeding, the first group of vases was treated with a dispersion having the following composition:
(§5) Said dispersion was prepared by adding a compound of the present invention at the desired concentration to a hydroacetonic solution containing acetone at 20% by volume and Tween 20 at 0.5% by weight, with respect to the total weight of the dispersion.
(§6) The desired concentration of a compound of the present invention corresponds to the concentration necessary for allowing the application of an effective dose of said compound equal to 250 g/ha to the plant species of interest.
(§7) The second group was only treated with a hydroacetonic solution containing acetone at 20% by volume and Tween 20 at 0.5% by weight, and was used as a comparison (control).
(§8) All the vases were kept under observation in a conditioned environment under the following environmental conditions: • temperature: 24° C.; • relative humidity: 60%; • photo-period: 16 hours; • light intensity: 12,000 lux.
(§9) Every two days the vases were uniformly watered to ensure a sufficient humidity degree for a good growth of the plants.

Apera spica-venti [2] = assay: Herbicidal activity in pre-emergence
Method: as §1, §2, §3, §4, §5, §6, §7, §8, §9

Digitaria sanguinalis [3] = assay: Herbicidal activity in pre-emergence
Method: as §1, §2, §3, §4, §5, §6, §7, §8, §9

Echinochloa crusgalli [4] = assay: Herbicidal activity in pre-emergence
Method: as §1, §2, §3, §4, §5, §6, §7, §8, §9

Eleusine indica [5] = assay: Herbicidal activity in pre-emergence
Method: as §1, §2, §3, §4, §5, §6, §7, §8, §9

Lolium rigidum [6] = assay: Herbicidal activity in pre-emergence
Method: as §1, §2, §3, §4, §5, §6, §7, §8, §9

Poa Annua [7] = assay: Herbicidal activity in pre-emergence
Method: as §1, §2, §3, §4, §5, §6, §7, §8, §9

Setaria viridis [8] = assay: Herbicidal activity in pre-emergence
Method: as §1, §2, §3, §4, §5, §6, §7, §8, §9

Alopecurus myosuroides [9] = assay: Herbicidal activity in post-emergence
Method: (§10) The herbicidal activity in post-emergence of the compounds of the invention was evaluated according to the following operating procedures.
as §2, §3, §7, §8, §9

Apera spica-venti [10] = assay: Herbicidal activity in post-emergence
Method: as §10, §2, §3, §7, §8, §9

Digitaria sanguinalis [11] = assay: Herbicidal activity in post-emergence
Method: as §10, §2, §3, §7, §8, §9

Echinochloa crusgalli [12] = assay: Herbicidal activity in post-emergence
Method: as §10, §2, §3, §7, §8, §9

Eleusine indica [13] = assay: Herbicidal activity in post-emergence
Method: as §10, §2, §3, §7, §8, §9

Lolium rigidum [14] = assay: Herbicidal activity in post-emergence
Method: as §10, §2, §3, §7, §8, §9

Poa Annua [15] = assay: Herbicidal activity in post-emergence
Method: as §10, §2, §3, §7, §8, §9

Setaria viridis [16] = assay: Herbicidal activity in post-emergence
Method: as §10, §2, §3, §7, §8, §9

Compound | Herbicidal activity in pre-emergence (Alopecurus myosuroides [1]) | Herbicidal activity in pre-emergence (Apera spica-venti [2]) | Herbicidal activity in pre-emergence (Digitaria sanguinalis [3]) | Herbicidal activity in pre-emergence (Echinochloa crusgalli [4]) | Herbicidal activity in pre-emergence (Eleusine indica [5]) | Herbicidal activity in pre-emergence (Lolium rigidum [6]) | Herbicidal activity in pre-emergence (Poa Annua [7]) | Herbicidal activity in pre-emergence (Setaria viridis [8]) | Herbicidal activity in post-emergence (Alopecurus myosuroides [9]) | Herbicidal activity in post-emergence (Apera spica-venti [10]) | Herbicidal activity in post-emergence (Digitaria sanguinalis [11]) | Herbicidal activity in post-emergence (Echinochloa crusgalli [12]) | Herbicidal activity in post-emergence (Eleusine indica [13]) | Herbicidal activity in post-emergence (Lolium rigidum [14]) | Herbicidal activity in post-emergence (Poa Annua [15]) | Herbicidal activity in post-emergence (Setaria viridis [16])
CCc1nnc([S+]([O-])Cc2c(C(F)(F)F)nn(C)c2OCC(F)(F)F)s1 (stereo not shown) [Nr. 121] | 5 (91% of damage-death of the plant) | 5 (91% of damage-death of the plant) | 5 (91% of damage-death of the plant) | 5 (91% of damage-death of the plant) | 5 (91% of damage-death of the plant) | 5 (91% of damage-death of the plant) | 5 (91% of damage-death of the plant) | 5 (91% of damage-death of the plant) | 4 (71-90% of damage) | 5 (91% of damage-death of the plant) | 5 (91% of damage-death of the plant) | 5 (91% of damage-death of the plant) | 5 (91% of damage-death of the plant) | 4 (71-90% of damage) | 5 (91% of damage-death of the plant) | 4 (71-90% of damage)
Cc1nnc([S+]([O-])Cc2c(Cl)cccc2Cl)s1 (stereo not shown) [Nr. 1, 2-[(2,6-dichlorobenzyl)-sulfinyl]-5-methyl-1,3,4-thiadiazole] | 4 (71-90% of damage) | 5 (91% of damage-death of the plant) | 5 (91% of damage-death of the plant) | 4 (71-90% of damage) | 5 (91% of damage-death of the plant) | 4 (71-90% of damage) | 5 (91% of damage-death of the plant) | 4 (71-90% of damage) | 4 (71-90% of damage) | 5 (91% of damage-death of the plant) | 5 (91% of damage-death of the plant) | 4 (71-90% of damage) | 5 (91% of damage-death of the plant) | 4 (71-90% of damage) | 5 (91% of damage-death of the plant) | 4 (71-90% of damage)
Cc1nnc([S+]([O-])Cc2c(C(F)(F)F)nn(C)c2OCC(F)(F)F)s1 (stereo not shown) [Nr. 9] | 5 (91% of damage-death of the plant) | 5 (91% of damage-death of the plant) | 5 (91% of damage-death of the plant) | 5 (91% of damage-death of the plant) | 5 (91% of damage-death of the plant) | 5 (91% of damage-death of the plant) | 5 (91% of damage-death of the plant) | 5 (91% of damage-death of the plant) | 5 (91% of damage-death of the plant) | 5 (91% of damage-death of the plant) | 5 (91% of damage-death of the plant) | 5 (91% of damage-death of the plant) | 5 (91% of damage-death of the plant) | 4 (71-90% of damage) | 5 (91% of damage-death of the plant) | 4 (71-90% of damage)
O=S(=O)(c1nnc(C(F)(F)F)s1)c1c(Cl)cccc1Cl [CR1, 2-(2,6-dichlorophenylsulfonyl)-5-(trifluoromethyl)-1,3,4-thiadiazole, reference compound] | 0 (0-10% of damage) | 0 (0-10% of damage) | 0 (0-10% of damage) | 0 (0-10% of damage) | 0 (0-10% of damage) | 0 (0-10% of damage) | 0 (0-10% of damage) | 0 (0-10% of damage) | 0 (0-10% of damage) | 0 (0-10% of damage) | 0 (0-10% of damage) | 0 (0-10% of damage) | 0 (0-10% of damage) | 0 (0-10% of damage) | 0 (0-10% of damage) | 0 (0-10% of damage)
